Source: the NIST ThermoML archive (doi:10.1007/s10765-007-0223-x)

Assay: xn = mol fraction of the nth substance listed
Details: 101 kPa, Liquid; for speed of sound: Single path-length method

CCc1ccccc1 [ethylbenzene] + COC(C)(C)C
Details | mass density [kg/m3] | speed of sound [m/s]
305.65 K, x2 = 0 | 855.837 | –
305.65 K, x2 = 0.046 | 850.573 | –
305.65 K, x2 = 0.106 | 843.52 | –
305.65 K, x2 = 0.212 | 831.061 | –
305.65 K, x2 = 0.299 | 820.447 | –
305.65 K, x2 = 0.402 | 807.578 | –
305.65 K, x2 = 0.503 | 796.166 | –
305.65 K, x2 = 0.6 | 782.111 | –
305.65 K, x2 = 0.701 | 768.689 | –
305.65 K, x2 = 0.822 | 752.062 | –
305.65 K, x2 = 0.899 | 741.065 | –
305.65 K, x2 = 0.948 | 733.91 | –
308.15 K, x2 = 0 | 853.622 | 1276.8
308.15 K, x2 = 0.046 | 848.347 | 1264.9
308.15 K, x2 = 0.106 | 841.274 | 1249.5
308.15 K, x2 = 0.212 | 828.779 | 1221.9
308.15 K, x2 = 0.299 | 818.132 | 1198.5
308.15 K, x2 = 0.402 | 805.218 | 1169.2
308.15 K, x2 = 0.503 | 793.77 | 1144
308.15 K, x2 = 0.6 | 779.66 | 1112.2
308.15 K, x2 = 0.701 | 766.192 | 1082.7
308.15 K, x2 = 0.822 | 749.497 | 1045.6
308.15 K, x2 = 0.899 | 738.451 | 1021
308.15 K, x2 = 0.948 | 731.264 | 1005.2
310.65 K, x2 = 0 | 851.407 | 1266.5
310.65 K, x2 = 0.046 | 846.119 | 1254.8
310.65 K, x2 = 0.106 | 839.024 | 1239.2
310.65 K, x2 = 0.212 | 826.493 | 1211.5
310.65 K, x2 = 0.299 | 815.815 | 1188.1
310.65 K, x2 = 0.402 | 802.853 | 1158.6
310.65 K, x2 = 0.503 | 791.367 | 1133.2
310.65 K, x2 = 0.6 | 777.204 | 1101.4
310.65 K, x2 = 0.701 | 763.689 | 1071.8
310.65 K, x2 = 0.822 | 746.926 | 1034.6
310.65 K, x2 = 0.899 | 735.825 | 1009.8
310.65 K, x2 = 0.948 | 728.607 | 993.9
313.15 K, x2 = 0 | 849.186 | 1256.3
313.15 K, x2 = 0.046 | 843.886 | 1244.6
313.15 K, x2 = 0.106 | 836.773 | 1229
313.15 K, x2 = 0.212 | 824.202 | 1201
313.15 K, x2 = 0.299 | 813.486 | 1177.5
313.15 K, x2 = 0.402 | 800.48 | 1148
313.15 K, x2 = 0.503 | 788.959 | 1122.5
313.15 K, x2 = 0.6 | 774.736 | 1090.5
313.15 K, x2 = 0.701 | 761.174 | 1060.8
313.15 K, x2 = 0.822 | 744.341 | 1023.4
313.15 K, x2 = 0.899 | 733.188 | 998.53
313.15 K, x2 = 0.948 | 725.934 | 982.63
315.65 K, x2 = 0 | 846.964 | 1246.1
315.65 K, x2 = 0.046 | 841.648 | 1234.5
315.65 K, x2 = 0.106 | 834.515 | 1218.7
315.65 K, x2 = 0.212 | 821.909 | 1190.8
315.65 K, x2 = 0.299 | 811.155 | 1166.9
315.65 K, x2 = 0.402 | 798.107 | 1137.5
315.65 K, x2 = 0.503 | 786.547 | 1111.9
315.65 K, x2 = 0.6 | 772.257 | 1079.6
315.65 K, x2 = 0.701 | 758.651 | 1050
315.65 K, x2 = 0.822 | 741.744 | 1012.4
315.65 K, x2 = 0.899 | 730.538 | 987.36
315.65 K, x2 = 0.948 | 723.249 | 971.33
318.15 K, x2 = 0 | 844.741 | 1236.1
318.15 K, x2 = 0.046 | 839.413 | 1224.5
318.15 K, x2 = 0.106 | 832.261 | 1208.7
318.15 K, x2 = 0.212 | 819.612 | 1180.5
318.15 K, x2 = 0.299 | 808.784 | 1155.9
318.15 K, x2 = 0.402 | 795.73 | 1127
318.15 K, x2 = 0.503 | 784.128 | 1101.4
318.15 K, x2 = 0.6 | 769.777 | 1068.9
318.15 K, x2 = 0.701 | 756.122 | 1039.2
318.15 K, x2 = 0.822 | 739.136 | 1001.4
318.15 K, x2 = 0.899 | 727.875 | 976.23
318.15 K, x2 = 0.948 | 720.551 | 960.13
320.65 K, x2 = 0 | 842.518 | 1226.1
320.65 K, x2 = 0.046 | 837.173 | 1214.5
320.65 K, x2 = 0.106 | 830.003 | 1198.6
320.65 K, x2 = 0.212 | 817.315 | 1170.4
320.65 K, x2 = 0.299 | 806.474 | 1146
320.65 K, x2 = 0.402 | 793.356 | 1116.8
320.65 K, x2 = 0.503 | 781.711 | 1091
320.65 K, x2 = 0.6 | 767.333 | 1058.7
320.65 K, x2 = 0.701 | 753.581 | 1028.4
320.65 K, x2 = 0.822 | 736.516 | 990.46
320.65 K, x2 = 0.899 | 725.199 | 965.11
320.65 K, x2 = 0.948 | 717.839 | 948.99
323.15 K, x2 = 0 | 840.306 | 1216.3
323.15 K, x2 = 0.046 | 834.949 | 1204.7
323.15 K, x2 = 0.106 | 827.754 | 1188.8
323.15 K, x2 = 0.212 | 815.028 | 1160.5
323.15 K, x2 = 0.299 | 804.174 | 1136.3
323.15 K, x2 = 0.402 | 791.012 | 1106.9
323.15 K, x2 = 0.503 | 779.302 | 1080.8
323.15 K, x2 = 0.6 | 764.898 | 1048.8
323.15 K, x2 = 0.701 | 751.042 | 1017.8
323.15 K, x2 = 0.822 | 733.902 | 979.73
323.15 K, x2 = 0.899 | 722.521 | 954.17
323.15 K, x2 = 0.948 | 715.125 | 938
